Structures can show the parent of a compound that is named as a salt.
Experiments:
HIV integrase = HIV integrase (Human immunodeficiency virus type 1 group M subtype B, UniProt P04585); assay: integrase strand transfer assay (STA); format: biochemical; conditions: integrase strand transfer; read-out: IC50 in the STA assay
HXB2 virus = assay: microbe, parasite or virus in culture; format: cell-based, HIV; conditions: Human immunodeficiency virus 1, HXB2, HeLaP4-2, read-out: antiviral IC50 (SCIA-B)
Experimental: An assay for measuring the inhibition of acute HIV infection with HeLa P4-2 cells in a single cycle infectivity assay (SCIA-A) was conducted in accordance with Joyce, J. G., et al., J. Biol. Chem., 2002, 277, 45811, Hazuda, D. J. et al., Science, 2000, 287, 646, and Kimpton, J. et al, J. Virol. 1992, 66, 2232. Infectious virus was produced by transfecting 293T cells with HIV proviral DNA in which the integrase gene was derived from a IIIB isolate and the remainder of the HIV genome was derived from the NL4-3 isolate.
This assay B for measuring the inhibition of acute HIV infection with HeLa P4-2 cells in a single cycle infectivity assay (SCIA-B) is essentially the same as Assay A described above, except that HXB2 virus is employed instead of the IIIb isolate.

CCOC(=O)c1c(O)c2cccnc2n(O)c1=O [Example 1, Ethyl 1,4-dihydroxy-2-oxo-1,2-dihydro-1,8-naphthyridine-3-carboxylate]
IC50 (HIV integrase): < 50 µM | IC50 (HXB2 virus): < 100 µM

O=c1cc(O)c2cccnc2n1O [Example 2, 1,4-Dihydroxy-1,8-naphthyridin-2(1B)-one]
IC50 (HIV integrase): < 50 µM | IC50 (HXB2 virus): < 100 µM

CCOC(=O)c1c(O)c2cc(Br)cnc2n(O)c1=O [Example 3, Ethyl 6-bromo-1,4-dihydroxy-2-oxo-1,2-dihydro-1,8-naphthyridine-3-carboxylate]
IC50 (HIV integrase): < 50 µM | IC50 (HXB2 virus): < 100 µM

CN(C)C(=O)c1c(O)c2cccnc2n(O)c1=O [Example 5, 1,4-Dihydroxy-N,N-dimethyl-2-oxo-1,2-dihydro-1,8-naphthyridine-3-carboxamide]
IC50 (HIV integrase): < 50 µM | IC50 (HXB2 virus): < 100 µM

O=C(NC1CC1)c1c(O)c2cccnc2n(O)c1=O [Example 6, N-Cyclopropyl-1,4-dihydroxy-2-oxo-1,2-dihydro-1,8-naphthyridine-3-carboxamide]
IC50 (HIV integrase): < 50 µM | IC50 (HXB2 virus): < 100 µM

CN(Cc1ccccc1)C(=O)c1c(O)c2cccnc2n(O)c1=O [Example 7, N-Benzyl-1,4-dihydroxy-N-methyl-2-oxo-1,2-dihydro-1,8-naphthyridine-3-carboxamide]
IC50 (HIV integrase): < 50 µM | IC50 (HXB2 virus): < 100 µM

O=C(c1c(O)c2cccnc2n(O)c1=O)N1CCCCC1 [Example 8, 1,4-Dihydroxy-3-(piperidin-1-ylcarbonyl)-1,8-naphthyridin-2(1H)-one]
IC50 (HIV integrase): < 50 µM | IC50 (HXB2 virus): < 100 µM

CN(C(=O)c1c(O)c2cccnc2n(O)c1=O)C1CCN(C(=O)OC(C)(C)C)CC1 [Example 9]
IC50 (HIV integrase): < 50 µM | IC50 (HXB2 virus): < 100 µM

CN(C(=O)c1c(O)c2cccnc2n(O)c1=O)C1CCN(C(=O)OC(C)(C)C)C1 (stereo not shown) [Example 10, tert-Butyl 3-[[(1,4-dihydroxy-2-oxo-1,2-dihydro-1,8-naphthyridin-3-yl)carbonyl](methyl)amino]pyrrolidine-1-carboxylate]
IC50 (HIV integrase): < 50 µM | IC50 (HXB2 virus): < 100 µM

COc1ccccc1NC(=O)c1c(O)c2cccnc2n(O)c1=O [Example 11, 1,4-Dihydroxy-N-(2-methoxyphenyl)-2-oxo-1,2-dihydro-1,8-naphthyridine-3-carboxamide]
IC50 (HIV integrase): < 50 µM | IC50 (HXB2 virus): < 100 µM

COc1cccc(NC(=O)c2c(O)c3cccnc3n(O)c2=O)c1 [Example 12, 1,4-Dihydroxy-N-(3-methoxyphenyl)-2-oxo-1,2-dihydro-1,8-naphthyridine-3-carboxamide]
IC50 (HIV integrase): < 50 µM | IC50 (HXB2 virus): < 100 µM

COc1ccc(NC(=O)c2c(O)c3cccnc3n(O)c2=O)cc1 [Example 13, 1,4-Dihydroxy-N-(4-methoxyphenyl)-2-oxo-1,2-dihydro-1,8-naphthyridine-3-carboxamide]
IC50 (HIV integrase): < 50 µM | IC50 (HXB2 virus): < 100 µM

COc1ccc(NC(=O)c2c(O)c3cccnc3n(O)c2=O)cn1 [Example 14, 1,4-Dihydroxy-N-(6-methoxypyridine-3-yl)-2-oxo-1,2-dihydro-1,8-naphthyridine-3-carboxamide]
IC50 (HIV integrase): < 50 µM | IC50 (HXB2 virus): < 100 µM

O=C(Nc1ccccc1OCc1ccccn1)c1c(O)c2cccnc2n(O)c1=O [Example 15, 1,4-Dihydroxy-2-oxo-N-[2-(pyridin-2-ylmethoxy)phenyl]-1,2-dihydro-1,8-naphthyridine-3-carboxamide, hydrochloric acid salt]
IC50 (HIV integrase): < 50 µM | IC50 (HXB2 virus): > 100 µM

O=C(Nc1cccnc1)c1c(O)c2cccnc2n(O)c1=O [Example 16, 1,4-Dihydroxy-2-oxo-N-pyridin-3-yl-1,2-dihydro-1,8-naphthyridine-3-carboxamide]
IC50 (HIV integrase): < 50 µM | IC50 (HXB2 virus): < 100 µM

O=C(NCc1ccc(F)cc1)c1c(O)c2cccnc2n(O)c1=O [Example 18, N-(4-Fluorobenzyl)-1,4-dihydroxy-2-oxo-1,2-dihydro-1,8-naphthyridine-3-carboxamide]
IC50 (HIV integrase): < 50 µM | IC50 (HXB2 virus): < 100 µM

O=C(NCc1ccccc1)c1c(O)c2cccnc2n(O)c1=O [Example 19, N-benzyl-1,4-dihydroxy-2-oxo-1,2-dihydro-1,8-naphthyridine-3-carboxamide]
IC50 (HIV integrase): < 50 µM | IC50 (HXB2 virus): < 100 µM

O=C(Nc1ccccc1)c1c(O)c2cccnc2n(O)c1=O [Example 20, 1,4-Dihydroxy-2-oxo-N-phenyl-1,2-dihydro-1,8-naphthyridine-3-carboxamide]
IC50 (HIV integrase): < 50 µM | IC50 (HXB2 virus): < 100 µM

O=C(NCC(F)(F)F)c1c(O)c2cccnc2n(O)c1=O [Example 22, 1,4-Dihydroxy-2-oxo-N-(2,2,2-trifluoroethyl)-1,2-dihydro-1,8-naphthyridine-3-carboxamide]
IC50 (HIV integrase): < 50 µM | IC50 (HXB2 virus): < 100 µM

CC(NC(=O)c1c(O)c2cccnc2n(O)c1=O)c1ccccc1 (stereo not shown) [Example 23, 1,4-Dihydroxy-2-oxo-N-(1-phenylethyl)-1,2-dihydro-1,8-naphthyridine-3-carboxamide]
IC50 (HIV integrase): < 50 µM | IC50 (HXB2 virus): < 100 µM

O=C(NCC1CCNC1)c1c(O)c2cccnc2n(O)c1=O (stereo not shown) [Example 25, 1,4-Dihydroxy-2-oxo-N-(pyrrolidin-3-ylmethyl)-1,2-dihydro-1,8-naphthyridine-3-carboxamide]
IC50 (HIV integrase): < 50 µM | IC50 (HXB2 virus): < 100 µM

O=c1c(-c2c(F)cccc2F)c(O)c2cccnc2n1O [Example 29, 3-(2,6-Difluorophenyl)-1,4-dihydroxy-1,8-naphthyridin-2(1H)-one]
IC50 (HIV integrase): < 50 µM | IC50 (HXB2 virus): < 100 µM

O=c1c(-c2ccccc2)c(O)c2cccnc2n1O [Example 30, 1,4-Dihydroxy-3-phenyl-1,8-naphthyridin-2-(1H)-one]
IC50 (HIV integrase): < 50 µM | IC50 (HXB2 virus): < 100 µM

COc1ccc(-c2c(O)c3cccnc3n(O)c2=O)cc1 [Example 31, 1,4-Dihydroxy-3-(4-methoxyphenyl)-1,8-naphthyridin-2(1H)-one]
IC50 (HIV integrase): < 50 µM | IC50 (HXB2 virus): < 100 µM

O=c1c(-c2ccccc2F)c(O)c2cccnc2n1O [Example 32, 3-(2-Fluorophenyl)-1,4-dihydroxy-1,8-naphthyridin-2(1H)-one]
IC50 (HIV integrase): < 50 µM | IC50 (HXB2 virus): < 100 µM

O=c1c(-c2ccc(F)cc2)c(O)c2cccnc2n1O [Example 34, 3-(4-Fluorophenyl)-1,4-dihydroxy-1,8-naphthyridin-2(1H)-one]
IC50 (HIV integrase): < 50 µM | IC50 (HXB2 virus): < 100 µM

O=c1c(-c2ccccc2Cl)c(O)c2cccnc2n1O [Example 35, 3-(2-Chlorophenyl)-1,4-dihydroxy-1,8-naphthyridin-2(1H)-one]
IC50 (HIV integrase): < 50 µM | IC50 (HXB2 virus): < 100 µM

O=c1c(-c2cccc(F)c2)c(O)c2cccnc2n1O [Example 36, 3-(3-Fluorophenyl)-1,4-dihydroxy-1,8-naphthyridin-2(1H)-one]
IC50 (HIV integrase): < 50 µM | IC50 (HXB2 virus): < 100 µM

O=c1c(-c2ccc(Cl)cc2)c(O)c2cccnc2n1O [Example 37, 3-(4-Chlorophenyl)-1,4-dihydroxy-1,8-naphthyridin-2(1H)-one]
IC50 (HIV integrase): < 50 µM | IC50 (HXB2 virus): < 100 µM

O=c1c(-c2ccc(Br)cc2)c(O)c2cccnc2n1O [Example 38, 3-(4-Bromophenyl)-1,4-dihydroxy-1,8-naphthyridin-2(1H)-one]
IC50 (HIV integrase): < 50 µM | IC50 (HXB2 virus): < 100 µM

COc1ccccc1-c1c(O)c2cccnc2n(O)c1=O [Example 39, 1,4-Dihydroxy-3-(2-methoxyphenyl)-1,8-naphthyridin-2(1H)-one]
IC50 (HIV integrase): < 50 µM | IC50 (HXB2 virus): < 100 µM

O=c1c(C2CCCC2)c(O)c2cccnc2n1O [Example 41, 3-Cyclopentyl-1,4-dihydroxy-1,8-naphthyridin-2(1H)-one]
IC50 (HIV integrase): < 50 µM | IC50 (HXB2 virus): < 100 µM

CCCCc1c(O)c2cccnc2n(O)c1=O [Example 42, 3-Butyl-1,4-dihydroxy-1,8-naphthyridin-2(1H)-one]
IC50 (HIV integrase): < 50 µM | IC50 (HXB2 virus): < 100 µM

O=c1c(-c2cccc(Br)c2)c(O)c2cccnc2n1O [Example 44, 3-(3-bromophenyl)-1,4-dihydroxy-1,8-naphthyridin-2(1H)-one]
IC50 (HIV integrase): < 50 µM | IC50 (HXB2 virus): < 100 µM

N#Cc1ccc(-c2c(O)c3cccnc3n(O)c2=O)cc1 [Example 45, 4-(1,4-dihydroxy-2-oxo-1,2-dihydro-1,8-naphthyridin-3-yl)benzonitrile]
IC50 (HIV integrase): < 50 µM | IC50 (HXB2 virus): < 100 µM

O=c1c(-c2ccccc2O)c(O)c2cccnc2n1O [Example 46, 1,4-dihydroxy-3-(2-hydroxyphenyl)-1,8-naphthyridin-2(1H)-one]
IC50 (HIV integrase): < 50 µM | IC50 (HXB2 virus): < 100 µM

O=c1c(-c2ccccc2)c(O)c2cc(Br)cnc2n1O [Example 47, 6-Bromo-1,4-dihydroxy-3-phenyl-1,8-naphthyridin-2(1H)-one]
IC50 (HIV integrase): < 50 µM | IC50 (HXB2 virus): < 100 µM

CCOC(=O)c1c(O)c2cc(-c3ccccc3)cnc2n(O)c1=O [Example 49, Ethyl 1,4-dihydroxy-2-oxo-6-phenyl-1,2-dihydro-1,8-naphthyridine-3-carboxylate]
IC50 (HIV integrase): < 50 µM | IC50 (HXB2 virus): < 100 µM

NCc1cccc(-c2cnc3c(c2)c(O)c(-c2ccccc2)c(=O)n3O)c1 [Example 50, 6-[3-(Aminomethyl)phenyl]-1,4-dihydroxy-3-phenyl-1,8-naphthyridin-2(1H)-one]
IC50 (HIV integrase): < 50 µM | IC50 (HXB2 virus): < 100 µM

O=c1c(-c2ccccc2)c(O)c2cc(-c3ccccc3)cnc2n1O [Example 51, 1,4-Dihydroxy-3,6-diphenyl-1,8-maphthyridin-2(1H)-one]
IC50 (HIV integrase): < 50 µM | IC50 (HXB2 virus): < 100 µM

O=c1c(-c2ccccc2)c(O)c2cc(Cc3ccccc3)cnc2n1O [Example 52, 6-Benzyl-1,4-dihydroxy-3-phenyl-1,8-naphthyridin-2(1H)-one]
IC50 (HIV integrase): < 50 µM | IC50 (HXB2 virus): < 100 µM

Reference: patent publication US20100056516A1 (priority 2006, published 2010)
